# Residues, ends and D or L forms follow the SMILES beside them. *: point of attachment. Cbz = O=C(OCc1ccccc1)*
# Molecular target: T1, PRL-3 (Homo sapiens, UniProt O75365)
# T1 construct: endogenous in cells; host or cells: BT-20 cells
# Assay: PRL-3 degradation in BT-20 cells
# Type: cell-based
# Conditions: proteasomal inhibitor with 100 nM compound A, FIG. 6
# T1 sequence (O75365 whole entry): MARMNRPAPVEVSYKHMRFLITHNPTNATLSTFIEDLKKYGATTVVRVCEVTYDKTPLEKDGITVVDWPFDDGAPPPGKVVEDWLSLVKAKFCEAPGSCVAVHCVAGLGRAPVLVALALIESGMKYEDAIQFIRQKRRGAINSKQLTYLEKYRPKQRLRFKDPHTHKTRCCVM
compound,measurement,value
CC(C)C[C@@H](C=O)NC(=O)[C@H](CC(C)C)NC(=O)[C@H](CC(C)C)NC(=O)OCc1ccccc1 [MG-132] (Cbz-Leu-Leu-Leu-aldehyde),effect on compound A-mediated degradation of PRL-3,block compound A-mediated degradation of PRL-3

# From US20230241081A1, “Method for Treating Melanoma” (The Regents of the University of Colorado, a body corporate, priority 2020, published 2023)
